The test concerns the target T1, Human recombinant PTP-1B (Homo sapiens, UniProt P18031).
T1 construct: Human recombinant PTP-1B, containing amino acids 1-321, fused to GST enzyme; GST (glutathione S-transferase)
T1 sequence (P18031 1-321): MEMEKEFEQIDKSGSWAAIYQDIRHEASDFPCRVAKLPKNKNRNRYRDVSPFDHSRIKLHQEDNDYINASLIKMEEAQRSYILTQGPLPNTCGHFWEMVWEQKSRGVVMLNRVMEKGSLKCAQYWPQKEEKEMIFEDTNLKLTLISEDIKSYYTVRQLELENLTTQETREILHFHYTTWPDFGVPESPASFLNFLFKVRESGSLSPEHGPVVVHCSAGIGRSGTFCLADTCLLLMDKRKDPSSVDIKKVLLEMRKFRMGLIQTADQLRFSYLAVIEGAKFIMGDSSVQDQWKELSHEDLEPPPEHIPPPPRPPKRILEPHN
Put plainly: Assay for PTP-1B Activity (pNPP substrate). In kind it is biochemical. To be noted: human recombinant PTP-1B (1-321) GST fusion, 2 mM pNPP, pH 7.4, 30° C., 20 min; read-out: Activity Code (IC50 range). From the text:
The activity of the compounds as modulators of protein tyrosine phosphatase, including PTP-1B, may be measured in standard assays (see, e.g., Examples 41 and 42). Briefly, the assay described herein employs human recombinant PTP-1B and a pNPP substrate in a rescue assay.
Assay for PTP-1B Activity
Enzyme: Human recombinant PTP-1B, containing amino acids 1-321, fused to GST enzyme (glutathione S-transferase) purified by affinity chromatography (Huyer et al, 1997, J. Biol. Chem., 272, 843-852).
pNPP: p-Nitrophenyl Phosphate (Calbiochem)
Assay Buffer: 50 mM HEPES (pH 7.4), 100 mM NaCl, 2 mM EDTA, 3 mM DTT
(5×) pNPP substrate: 10 mM pNPP in assay buffer
Enzyme: 1 mg/ml PTP1B (1-321), dilute 1:200 in assay buffer
Assay buffer: 50 mM HEPES (pH 7.4), 100 mM NaCl, 2 mM EDTA, 3 mM DTT
Enzyme dilution buffer: 50 mM HEPES (pH 7.4), 100 mM NaCl, 2 mM EDTA, 3 mM DTT
Substrate 198 mM p-Nitrophenyl Phosphate (pNPP) store at 4° C.
The assay was carried out at 30° C. in 96 well plates. The reaction mixture in 60 ul contained 50 mM HEPES (pH 7.4), 100 mM NaCl, 2 mM EDTA, 3 mM DTT, and 2 mM p-Nitrophenyl Phosphate (pNPP). 5 ul of the test compound (inhibitor) dissolved in DMSO or DMSO alone for control was added to each well and the plate was mixed for 2 min. The reaction was initiated by adding 20 ul of diluted PTP1B (5 ng/ul in 50 mM HEPES (pH 7.4), 100 mM NaCl, 2 mM EDTA, 3 mM DTT). After 20 min at 30° C., the enzyme reaction was terminated by adding 100 ul of 2 M K2CO3 to each well. The phosphatase activity was detected by using Victor II plate reader (Wallac) with absorbance detection at 405 nm. All the assays were done at least in duplicate. The initial rate of pNP is plotted against the concentration of inhibitor.

From patent US20080070867A1, “2-Imidazolone and 2-Imidazolidinone Heterocyclic Inhibitors of Tyrosine Phosphatases” (Metabasis Therapeutics, Inc., priority 2005, published 2008) come the findings set out here.

As a reminder, the IC50 is the concentration that gives 50% inhibition.

As to `CS(=O)(=O)c1ccc(Cn2ccn(Cc3ccc(C(F)(F)P(=O)(O)O)c(Br)c3)c2=O)cc1` [Compound 50, ({2-Bromo-4-[3-(4-methanesulfonyl-benzyl)-2-oxo-2,3-dihydro-imidazol-1-ylmethyl]-phenyl}-difluoro-methyl)-phosphonic acid], the IC50 lay in the range of 250 to 2500 nM.

On to `COC(=O)c1ccc(Cn2ccn(Cc3ccc(C(F)(F)P(=O)(O)O)c(Br)c3)c2=O)cc1` [Compound 81, 4-{3-[3-Bromo-4-(difluoro-phosphono-methyl)-benzyl]-2-oxo-2,3-dihydro-imidazol-1-ylmethyl}-benzoic acid methyl ester], for which the IC50 was 250 to 2500 nM.

Turning to `O=c1n(Cc2ccccc2)cc(-c2ccc(Cl)cc2)n1Cc1ccc(C(F)(F)P(=O)(O)O)c(Br)c1` [Compound 26, ({4-[3-Benzyl-5-(4-chloro-phenyl)-2-oxo-2,3-dihydro-imidazol-1-ylmethyl]-2-bromo-phenyl}-difluoro-methyl)-phosphonic acid], the IC50 lay in the range of 100 to 249 nM.

On to `N#Cc1cccc(-c2cn(Cc3ccccc3)c(=O)n2Cc2ccc(C(F)(F)P(=O)(O)O)c(Br)c2)c1` [Compound 31, ({4-[3-Benzyl-5-(3-cyano-phenyl)-2-oxo-2,3-dihydro-imidazol-1-ylmethyl]-2-bromo-phenyl}-difluoro-methyl)-phosphonic acid], for which the IC50 was 250 to 2500 nM.

Take `CC(C)OC(=O)OC(C)OP(=O)(O)C(F)(F)c1ccc(Cn2c(-c3ccc(S(C)(=O)=O)cc3)c[nH]c2=O)cc1Br` (centres unmarked) [Compound 65, ({2-Bromo-4-[5-(4-methanesulfonyl-phenyl)-2-oxo-2,3-dihydro-imidazol-1-ylmethyl]phenyl}-difluoro-methyl) phosphonic acid mono-(1-isopropoxy-carbonyloxy-ethyl) ester]: the IC50 lay in the range of 2500 to 25000 nM.

`CCOC(=O)C(C)(C)Oc1ccc(-c2cn(C3CC3)c(=O)n2Cc2ccc(C(F)(F)P(=O)(O)O)c(Br)c2)cc1` [Compound 73, 2-(4-{3-[3-Bromo-4-(difluoro-phosphono-methyl)-benzyl]-1-cyclopropyl-2-oxo-2,3-dihydro-1H-imidazol-4-yl}-phenoxy)-2-methyl-propionic acid ethyl ester]: the IC50 was 100 to 249 nM.

For `COC(=O)c1ccc(Cn2cc(-c3ccccc3)n(Cc3ccc(C(F)(F)P(=O)(O)O)c(Br)c3)c2=O)cc1` [Compound 54, 4-{3-[3-Bromo-4-(difluoro-phosphono-methyl)-benzyl]-2-oxo-4-phenyl-2,3-dihydro-imidazol-1-ylmethyl}-benzoic acid methyl ester], the IC50 was 100 to 249 nM.

Regarding `O=C(O)COc1ccc(-c2cn(C3CC3)c(=O)n2Cc2ccc(C(F)(F)P(=O)(O)O)c(Br)c2)cc1` [Compound 52, (4-{3-[3-Bromo-4-(difluoro-phosphono-methyl)-benzyl]-1-cyclopropyl-2-oxo-2,3-dihydro-1H-imidazol-4-yl}-phenoxy)-acetic acid], the IC50 was less than 99 nM.

For the molecule `CS(=O)(=O)c1ccc(-c2c[nH]c(=O)n2Cc2ccc(C(F)(F)P(=O)(O)O)c(Br)c2)cc1` [Compound 3, ({2-Bromo-4-[5-(4-methanesulfonyl-phenyl)-2-oxo-2,3-dihydro-imidazol-1-ylmethyl]-phenyl}-difluoro-methyl)-phosphonic acid], the IC50 is 250 to 2500 nM.

With `COC(=O)c1ccc(-c2cn(Cc3ccc(C#N)cc3)c(=O)n2Cc2ccc(C(F)(F)P(=O)(O)O)c(Br)c2)cc1` [Compound 15, 4-[3-[3-Bromo-4-(difluoro-phosphono-methyl)-benzyl]-1-(4-cyano-benzyl)-2-oxo-2,3-dihydro-1H-imidazol-4-yl]-benzoic acid methyl ester], the IC50 fell in the range of 100 to 249 nM.

Take `COC(=O)c1ccc(-c2cn(Cc3ccc(F)cc3)c(=O)n2Cc2ccc(C(F)(F)P(=O)(O)O)c(Br)c2)cc1` [Compound 11, 4-[3-[3-Bromo-4-(difluoro-phosphono-methyl)-benzyl]-1-(4-fluoro-benzyl)-2-oxo-2,3-dihydro-1H-imidazol-4-yl]-benzoic acid methyl ester]: the IC50 was 100 to 249 nM.
